Test results published in patent publication US9079913B2, “Spiro-oxindole MDM2 antagonists” (The Regents of the University of Michigan, priority 2009, dated 2015).
Where two headings read alike, the source gives them in different places.

Columns and labels:
[1] = target: recombinant human His-tagged MDM2 protein (residues 1-118) (Homo sapiens (Human), UniProt Q00987); test: Fluorescence-polarization MDM2 binding assay; conditions: Table 19A; FP binding assay; read-out: MDM2 IC50;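 further: fluorescence polarization read after three hours of incubation in potassium phosphate buffer containing bovine gamma globulin and Triton X-100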
recombinant human His-tagged MDM2 protein (residues 1-118), sequence (Q00987 1-118): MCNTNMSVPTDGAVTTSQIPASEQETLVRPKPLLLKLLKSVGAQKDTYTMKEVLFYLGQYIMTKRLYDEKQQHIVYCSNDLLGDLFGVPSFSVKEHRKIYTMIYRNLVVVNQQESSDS

[2] = test system: Isogenic HCT-116 colon cancer cell lines; test: cells; assay type: cell-based; conditions: Homo sapiens, cell growth;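 further: cells grown in 96-well plates in McCoy's 5A medium with 10% FBS, exposed to compound for 4 days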
Protocol: Cells were seeded in 96-well flat bottom cell culture plates at a density of 2−3×10^3 cells/well with compounds and incubated for 4 days.

[3] = test system: cancer cell lines with wild-type p53 / mutated or deleted p53 (ATCC); test: Cell growth assay (WST-8), other cancer cell lines; assay type: cell-based; conditions: Homo sapiens
[4] = In vitro microsomal stability, rat; assay type: in vitro ADME
[5] = HCT-116, read-out: HCT-116 (p53-/-) IC50, Table 19A, HCT-116 p53-/-
[6] = HCT-116, read-out: HCT-116 (p53 wild-type) IC50, Table 19A, HCT-116 p53 wild-type
[7] = LNCaP, Table 19A, LNCAP cells, p53 wild-type, cell growth, read-out: LNCAP (p53 wild-type) IC50
[8] = PC-3, Table 19A, PC-3 cells, deleted p53, cell growth, read-out: PC-3 (deleted p53) IC50
[9] = SJSA-1, Table 19A, SJSA-1 cells, p53 wild-type, cell growth, read-out: SJSA-1 (p53 wild-type) IC50

SMILES	IC50 [1] [µM]	IC50 [2, 5] [µM]	IC50 [2, 6] [µM]	IC50 [3, 7] [µM]	IC50 [3, 8] [µM]	IC50 [3, 9] [µM]	% of compound remaining when incubated in rat liver microsomes ([4]; Table 17, 0 min) [%]	% of compound remaining when incubated in rat liver microsomes ([4]; Table 17, 4 min) [%]	% of compound remaining when incubated in rat liver microsomes ([4]; Table 17, 6 min) [%]	% of compound remaining when incubated in rat liver microsomes ([4]; Table 17, 10 min) [%]	% of compound remaining when incubated in rat liver microsomes ([4]; Table 17, 15 min) [%]	% of compound remaining when incubated in rat liver microsomes ([4]; Table 17, 30 min) [%]	microsomal stability (in words) ([4]; rat liver microsomes)	% of compound remaining when incubated in rat liver microsomes at indicated time (min) ([4]; 0 min) [%]	% of compound remaining when incubated in rat liver microsomes at indicated time (min) ([4]; 4 min) [%]	% of compound remaining when incubated in rat liver microsomes at indicated time (min) ([4]; 6 min) [%]	% of compound remaining when incubated in rat liver microsomes at indicated time (min) ([4]; 10 min) [%]	% of compound remaining when incubated in rat liver microsomes at indicated time (min) ([4]; 15 min) [%]	% of compound remaining when incubated in rat liver microsomes at indicated time (min) ([4]; 30 min) [%]
CNC(=O)[C@@H]1N[C@H](CC(C)(C)C)[C@]2(C(=O)Nc3cc(Cl)c(F)cc32)[C@H]1c1cccc(Cl)c1 [MI-519-40]	< 1	18.5 ± 5.5	1 ± 0.1	1 ± 0.1	14.6 ± 2.7	1.3 ± 0.3	100	84.2	70.1	59.6	58.7	57.6	improved microsomal stability over MI-219						
CC(C)(C)C[C@H]1N[C@@H](C(=O)NCCCN2CCCCC2)[C@H](c2cccc(Cl)c2F)[C@@]12C(=O)Nc1cc(Cl)ccc12 [MI-519-44]	< 10	2.8 ± 0.7	0.8	1.3 ± 0.2	2.6 ± 0.1	0.9 ± 0.1	100	85.6	74.7	66.4	61.2	42.5							
CC(C)(C)C[C@H]1N[C@@H](C(=O)NCCCN2CCCC2)[C@H](c2cccc(Cl)c2)[C@@]12C(=O)Nc1cc(Cl)c(F)cc12 [MI-519-38]	< 1	5.3 ± 1.6	1.4 ± 0.6	1 ± 0.3	3.1 ± 0.4	2.1 ± 0.1								100	91.5	85.4	82.4	80.8	73.2
CC(C)(C)C[C@H]1N[C@@H](C(=O)NCCCN2CCN(C3CC3)CC2)[C@H](c2cccc(Cl)c2F)[C@@]12C(=O)Nc1cc(Cl)ccc12 [MI-519-47]	< 10	7.8 ± 0.9	1.1 ± 0.2	1.1 ± 0.3	5.7 ± 0.6	1.1	100	80.1	61.1	45.3	38.1	34.3							
CC(C)(C)C[C@H]1N[C@@H](C(N)=O)[C@H](c2cccc(Cl)c2)[C@@]12C(=O)Nc1cc(Cl)c(F)cc12 [MI-519-41]	< 1	17.9 ± 2.2	1 ± 0.3	1.2	14.9 ± 1.1	1.3 ± 0.4	100	84.2	80.4	66.1	55.4	42.9							
CN1CCN(CCCNC(=O)[C@@H]2N[C@H](CC(C)(C)C)[C@]3(C(=O)Nc4cc(Cl)ccc43)[C@H]2c2cccc(Cl)c2F)CC1 [MI-519-46]	< 1	4.3 ± 0.4	0.4 ± 0.1	0.5 ± 0.3	3.7 ± 0.4	0.5 ± 0.3	100	83.8	70.9	53.9	53.4	38.3							
CC(C)(C)C[C@H]1N[C@@H](C(=O)NCCN2CCNCC2)[C@H](c2cccc(Cl)c2)[C@@]12C(=O)Nc1cc(Cl)c(F)cc12 [MI-748]	< 1	7.6 ± 1	0.9 ± 0.7	0.8	4.1 ± 0.1		100	79.1	69.7	61.5	49.9	43.7							
CN1CCN(CCNC(=O)[C@@H]2N[C@H](CC(C)(C)C)[C@]3(C(=O)Nc4cc(Cl)c(F)cc43)[C@H]2c2cccc(Cl)c2)CC1 [MI-749]	< 1	7.8 ± 1.3	1.2 ± 0.4	1 ± 0.1	5 ± 0.5		100	82.9	58.4	54.2	42.7	23							
CC(C)(C)C[C@H]1N[C@@H](C(=O)NCCCN2CCCC2)[C@H](c2cccc(Cl)c2F)[C@@]12C(=O)Nc1cc(Cl)c(F)cc12 [MI-764]	< 1	3.8 ± 0.7	0.5 ± 0.2	1 ± 0.4	2.4 ± 0.4	1.2 ± 0.3	100	87.8	76.5	66.5	63.9	55.8							
CC(C)N1CCN(CCCNC(=O)[C@@H]2N[C@H](CC(C)(C)C)[C@]3(C(=O)Nc4cc(Cl)ccc43)[C@H]2c2cccc(Cl)c2F)CC1 [MI-519-45]	< 10	6.9 ± 1.9	0.9 ± 0.3	1 ± 0.2	5.1 ± 0.9	0.8 ± 0.2	100	81.1	59.6	50.7	44.3	38.5							
